Source: ChEMBL document CHEMBL1857833, “Screening and optimization of specific chemical series against human African Trypanosomiasis (HAT)”
Converted amounts (≈) assume the structure as drawn. “And” between values parts separate entries of the source, which are not always exact repeats. Identical values can stand only once.

Assays:
Trypanosoma brucei = assay: DNDI: Inhibition of Human African Trypanosomiasis, SBRI 427, in vitro; type: functional, organism-based
[1] = DNDI: Cytotoxicity against L929 mouse fibroblasts, CYTO-SP, 24 hour; type: toxicity, cell-based; conditions: mouse, L929 mouse fibroblasts
[2] = Trypanosoma brucei, SBRI 427, read-out: IC50

SMILES	IC50 (Trypanosoma brucei; [2]) [µg/mL]	IC50 at 24 h [1] [µg/mL]	IC50 (Trypanosoma brucei)
COc1cc(C)ccc1Oc1nc(C)ccc1/C(=N/O)NCC(C)(C)C	0.09 (≈ 0.252 µM)	< 50	–
OC/C(=N\O)c1ccccc1	> 5	> 50	–
COc1ccc(-c2noc(C(C)C)n2)cc1	> 5	> 50	–
COc1ccccc1/C(=N/O)N(C(=O)C(C)C)C(=O)C(C)C	> 5	> 50	–
CC1CCC(N/C(=N\O)c2cccnc2Oc2c(F)cccc2F)CC1 (configuration not stated)	0.99 (≈ 2.74 µM)	> 50	–
O/N=C(\NCc1c(F)cccc1F)c1cccnc1Oc1c(F)cccc1F	1.15 (≈ 2.94 µM)	> 50	–
COCCN/C(=N\O)c1cccnc1Oc1ccc(C(C)C)cc1	1.04 (≈ 3.16 µM)	> 50	–
O/N=C(\NC1CCCCC1)c1cccnc1Oc1ccc2ccccc2c1	0.08 (≈ 0.221 µM)	> 50	–
C[C@H]1C(NCc2coc(-c3ccccc3Br)n2)C[C@@H]2C[C@H]1C2(C)C (some centres not stated)	1.22 (≈ 3.13 µM)	43.2 (≈ 111 µM)	0.94 µg/mL (≈ 2.41 µM)
COc1ccc(Oc2ncccc2/C(=N/O)NC2CCCC2)cc1	0.15 (≈ 0.458 µM)	> 50	–
Cc1cc(C)cc(CN/C(=N\O)c2cccnc2Oc2c(F)cccc2F)c1	1.08 (≈ 2.82 µM)	> 50	–
COc1ccc(C(=O)NC2CCCCC2)cc1	> 5	> 50	–
CCOc1ccccc1CN/C(=N\O)c1cccnc1Oc1ccc(CC)cc1	0.76 (≈ 1.94 µM)	> 50	–
O/N=C(/NC1CCCCC1)c1ccc2ccccc2c1	> 5	21.1 (≈ 78.7 µM)	–
CC1CC(N/C(=N\O)c2cccnc2Oc2c(F)cccc2F)CC(C)(C)C1 (configuration not stated)	1.12 (≈ 2.88 µM)	31.5 (≈ 80.9 µM)	–
N#Cc1cccnc1Oc1cccc2ccccc12	> 5	> 50	–
Fc1ccccc1Oc1ncccc1CNC1CCCCC1	> 5	> 50	–
O/N=C(\NC1CCCC1)c1ccc(Oc2cc(Cl)ccc2Cl)nc1	1.08 (≈ 2.95 µM)	28.8 (≈ 78.6 µM)	–
CCN(CC)/C(=N\O)c1ccccc1-c1ccccc1	> 5	> 50	–
N#Cc1cccnc1Oc1ccccc1Br	> 5	> 50	–
CC1CCCC(NCc2coc(-c3ccccc3Br)n2)C1C (configuration not stated)	–	> 50	2.06 µg/mL and 0.92 µg/mL
Cc1ccccc1CN/C(=N\O)c1cccnc1Oc1ccc(C(C)C)cc1	1.06 (≈ 2.82 µM)	44.9 (≈ 120 µM)	–
O/N=C(\NCc1ccccc1)c1cccnc1Oc1cc(Cl)ccc1Cl	0.77 (≈ 1.98 µM)	> 50	–
N/C(=N/O)c1cccnc1Oc1cccc2ccccc12	> 5	> 50	–

SMILES	IC50 (Trypanosoma brucei; [2]) [µg/mL]	IC50 at 24 h [1] [µg/mL]	IC50 (Trypanosoma brucei)
O/N=C(\NC1CCCCC1)c1ccccc1Br	> 5	> 50	–
CCc1ccc(N/C(=N/O)c2ccccc2-c2ccccc2)cc1	5 (≈ 15.8 µM)	15.6 (≈ 49.4 µM)	–
COc1cccc(CN/C(=N\O)c2cccnc2Oc2ccc(Cl)cc2)c1	1.1 (≈ 2.87 µM)	> 50	–
CCc1ccc(Oc2ncccc2/C(=N/O)NCc2ccccc2C)cc1	1.07 (≈ 2.96 µM)	> 50	–
COc1ccc(Oc2ncccc2/C(=N/O)NCC(C)(C)C)cc1	0.18 (≈ 0.546 µM)	> 50	–
CCOc1ccccc1CN/C(=N\O)c1cccnc1Oc1ccc(C(C)C)cc1	1.12 (≈ 2.76 µM)	38.6 (≈ 95.1 µM)	–
COc1cccc(/C(N)=N/O)c1	> 5	> 50	–
CCc1ccccc1Oc1ncccc1/C(N)=N\O	> 5	> 5	–
C=CCO/N=C/c1ccccc1-c1ccccc1	> 5	> 50	–
CSc1ccccc1Oc1ncccc1/C(N)=N\O	> 5	> 5	–
CCc1ccccc1Oc1ncccc1C#N	> 5	> 50	–
COc1ccc(C(=O)NC2CCCCC2)c(OC)c1	> 5	> 50	–
COc1cccc(-c2noc(C(C)C)n2)c1	> 5	> 50	–
Clc1ccc(-c2nc(CNCCCN3CCCC3)co2)c(Cl)c1	–	33.6 (≈ 94.8 µM)	0.62 µg/mL and 1.33 µg/mL
COc1ccc(C(=O)Cc2ccccc2)cc1	> 5	> 50	–
O/N=C(\NCC1CC1)c1cccnc1Oc1ccc2ccccc2c1	0.62 (≈ 1.86 µM)	> 50	–
N/C(=N/O)c1cccnc1Oc1ccc2ccccc2c1	> 5	> 50	–
O/N=C(/c1ccccc1-c1ccccc1)n1ccnc1	> 5	> 50	–
COc1ccc(/C(=N/O)NCC2CCCCC2)cc1	3.41 (≈ 13 µM)	> 50	–
CC(C)c1ccc(Oc2ncccc2/C(=N/O)NCC2CCCO2)cc1 (configuration not stated)	0.54 (≈ 1.52 µM)	> 50	–
CCc1ccc(Oc2ncccc2/C(=N/O)NCCOC)cc1	1.12 (≈ 3.55 µM)	> 50	–
O/N=C(/c1cccnc1Oc1ccc2ccccc2c1)N1CCC2CCCCC2C1 (configuration not stated)	0.13 (≈ 0.324 µM)	> 50	–
CC(C)COc1ncccc1/C(=N/O)NCC(C)(C)C	1.12 (≈ 4.01 µM)	> 50	–
CCC(CC)N/C(=N\O)c1cccnc1Oc1ccc(C)c2c1CCC2	0.37 (≈ 1.05 µM)	> 50	–
